From US20110104177A1, “HISTONE DEACETYLASE INHIBITORS, COMBINATION THERAPIES AND METHODS OF USE” (THE JOHNS HOPKINS UNIVERSITY, priority 2006, published 2011) come the findings set out here.

Data set [1] deals with SFRP1 and 2 genes in human breast cancer cells (line H231). Description: Re-activation of SFRP1 and 2 genes in breast cancer cells (line H231). It counts as cell-based. The method, then:
This has been accomplished for the SFRP1 and 2 genes in human breast cancer cells (line H231) and for SFRP1 in human colon cancer cells (line RKO).
(§1) The results from experiments performed in RKO cells are shown in FIG. 7 which presents RT-PCR results for SFRP1. […] The expression seemed stronger than for 300 μM splitomycin (Spt) or 20 mM nicotinamide (Nia) when these latter two drugs were used alone or in combination, but not as strong as the expression induced by 1 μM of the DNA demethylating agent, deoxy-aza-cytidine (Aza). […] Experiments were carried out as essentially described above.

Data set [2] deals with SFRP1, SFRP2, MLH1, CRBP1, E-cadherin genes in RKO cells. Description: RT-PCR re-expression of silenced tumor suppressor genes in RKO cells. It counts as cell-based, human. The following applies: RKO cells; for SFRP1 RT-PCR specific band: doses of 20 and 50 μM, 24 or 48 hours. The method, then:
To inhibit any residual SIRT1 protein, remaining RNAi-expressing cells were treated with 700 μM SPT and control samples were treated with DMSO for 24 hours. […] RKO cells were also treated with 0.5 μM Aza (24 hours), and samples were analyzed as described in FIG. 1A; RT-PCR was performed with intron-spanning primers specific for the two genes. GAPDH was also analyzed as a control. […] Control samples in which no reverse transcriptase was added were analyzed separately, and all were negative for amplification of the indicated genes. […] The level of TSG re-expression induced by Aza treatment or SIRT1 inhibition as described in FIG. 4(A) was compared to levels of expression in HCT116 cells in which the TSGs are basally expressed.
(§2) Cell culture and retroviral infection. MDA-MB-231, MCF7, HCT116, SW480 RKO, and Phoenix cells (ATCC, Rockville, Md., United States) were cultured in Dulbecco's modified Eagle's medium supplemented with 10% fetal bovine serum and 1% penicillin/streptomycin (Invitrogen, Carlsbad, Calif., United States). Retroviral infection was performed using either single or multiple rounds of infection. Briefly, Phoenix cells were transfected with either pBabe, pBabe-SIRT1H363Y, pSUPERretro, pSUPERretro-SIRT1-RNAi-1-3 (NM_012238 positions 410, 589, and 1091; Oligo Engine, Seattle, Wash., United States) using Lipofectamine 2000 (Invitrogen). After 48 h of transfection, the medium containing retrovirus was collected, filtered, and supplemented with Polybrene prior to infection of target cells (MDA-MB-231, MCF7, or HCT116). Infected cells were either harvested 24-48 hours later or subjected to selection with 2-3 μg/ml puromycin for a week prior to harvest and analysis.
(§3) RNA and protein preparation and analysis. Total RNA was extracted (Invitrogen) according to the manufacturer's instructions and subjected to reverse transcription followed by both quantitative real-time and semi-quantitative polymerase chain reaction. For quantitative real-time analyses, the QuantiTect SYBR Green PCR kit (Qiagen, Valencia, Calif., United States) was used and the amplification conditions consisted of an initial 10-minutes denaturation step at 95° C., followed by 40 cycles of denaturation at 95° C. for 15 s and annealing and extension for 30 seconds and 60 seconds, respectively. A BioRad iCycler was used (BioRad, Hercules, Calif., United States), and for quantitation the comparative cycle threshold (Ct) method was used, normalizing the Ct values for the indicated gene to the Ct values of GAPDH relative to a control sample. For conventional PCR, at least two independent sets of intron-spanning primers were used for the analysis of multiple genes, such as CRBP1, (NM_002899), E-cadherin, (L34545), SFRP1, (BC036503), SFRP2, (BC008666), and Gata-4 (L34357). For Western blots, cells stably expressing RNAi constructs were harvested in 50 mM Tris-HCl, 1% NP-40, 0.25% sodium deoxycholate, 150 mM NaCl, 50 mM sodium fluoride, 1 mM dithiothreitol, 1 mM AEBSF, 1× Complete protease inhibitor cocktail (Roche, Basel, Switzerland). Protein concentrations were measured by BCA (Pierce Biotechnology, Rockford, Ill., United States). […] On the same blot, β-actin (Sigma, St. Louis, Mo., United States) was probed to ensure equal loading.
as §1

Data set [3] deals with T1, SIRT1 (Homo sapiens, UniProt Q96EB6).
T1 sequence (Q96EB6 1-747): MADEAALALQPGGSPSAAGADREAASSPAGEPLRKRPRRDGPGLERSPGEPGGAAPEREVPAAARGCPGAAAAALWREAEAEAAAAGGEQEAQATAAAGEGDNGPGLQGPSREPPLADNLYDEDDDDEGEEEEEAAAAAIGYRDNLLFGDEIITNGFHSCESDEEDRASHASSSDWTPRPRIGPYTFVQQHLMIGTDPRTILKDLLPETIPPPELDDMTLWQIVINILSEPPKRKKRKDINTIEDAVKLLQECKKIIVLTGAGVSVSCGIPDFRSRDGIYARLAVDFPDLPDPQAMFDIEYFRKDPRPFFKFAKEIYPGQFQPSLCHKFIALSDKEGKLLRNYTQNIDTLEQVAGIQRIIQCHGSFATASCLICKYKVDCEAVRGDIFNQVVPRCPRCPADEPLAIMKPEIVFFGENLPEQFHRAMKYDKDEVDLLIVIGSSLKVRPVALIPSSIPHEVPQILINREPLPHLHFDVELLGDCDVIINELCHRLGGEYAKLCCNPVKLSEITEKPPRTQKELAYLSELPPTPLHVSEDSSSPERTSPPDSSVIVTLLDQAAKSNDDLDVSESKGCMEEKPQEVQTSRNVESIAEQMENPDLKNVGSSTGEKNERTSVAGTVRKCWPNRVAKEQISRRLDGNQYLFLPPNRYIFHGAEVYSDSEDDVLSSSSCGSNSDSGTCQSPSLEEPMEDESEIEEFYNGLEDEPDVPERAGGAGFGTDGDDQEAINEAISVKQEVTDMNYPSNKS
The experiment in a line: Activity against the SIRT1 enzyme / SIRT1 deacetylase activity. The format is biochemical.

Data set [4] deals with SFRP1, SFRP2, GATA4 promoter methylation in MDA-MB-231 cells. The experiment in a line: Promoter DNA methylation by bisulfite sequencing and MSP. The format is cell-based, human. To be noted: MDA-MB-231 cells stably infected. The source says:
The panels of FIG. 3 are as follows. […] Parallel samples analyzed in FIG. 1D were subjected to bisulfite sequencing of the SFRP1 promoter from MDA-MB-231 cells stably infected with control vector or RNAi-2 or RNAi-3 retrovirus. Open circles indicate unmethylated cytosines, and closed circles indicate methylated cytosines. Numbers at the bottom show the position of cytosines relative to the transcription start site, which is at position 0, and those with a minus sign (−) are upstream from this start site. The region sequenced encompasses the CpG island in which methylation status correlates with gene expression status. […] From left to right: (−) PCR Ctrl indicates H2O only; (−) BS ctrl indicates bisulfite-treated H20; (+) M ctrl indicates the cell line in which SFRP1 is partially methylated and SFRP2 and GATA4 are fully methylated; and (+) U ctrl indicates the Tera-2 cell line in which each gene is unmethylated. All remaining lanes are for MDA-MB-231. From left to right: Aza indicates 1 μM Aza (24 hours) treatment; Ctrl indicates empty vector infection; RNAi-2 indicates shRNA-2 infection alone; RNAi-3 indicates shRNA-3 infection alone; Aza indicates 1 μM Aza (24 hours treatment of control cells; Ctrl indicates empty vector infection+vehicle; RNAi-2 indicates shRNA-2 infection+5 mM NIA treatment; and RNAi-3 indicates shRNA-3 infection+5 mM NIA treatment.
MSP and bisulfite sequencing. […]

The subject of data set [5] is SIRT1. The experiment in a line: Western blot of SIRT1 protein after retroviral shRNA infection. The format is cell-based, human. The following applies: MDA-MB-231 cells. The method, then:
as §2, §3

Data set [6] has as its system SFRP1, SFRP2, E-cadherin, CRBP1 genes in MDA-MB-231 cells. Description: RT-PCR re-expression of silenced tumor suppressor genes in MDA-MB-231 cells. It counts as cell-based, human. The following applies: MDA-MB-231 cells. The method, then:
The panels of FIG. 2 are as follows. […] MDA-MB-231 cells were treated with 15 mM NIA or 300 μM SPT for 21 hours, RNA was isolated, and RT-PCR was performed with intron-spanning primers specific for the indicated genes. Control samples in which no reverse transcriptase was added were analyzed separately, and all were negative for amplification of the indicated genes. […] MDA-MB-231 cells were treated with either 50 nM Aza (+), 100 μM SPT (+) or with both Aza and SPT (++), and 34 hours later, RT-PCR was performed for the indicated genes as described in FIG. 2(A). […] MDA-MB-231 cells were treated with either 0, 50, 100, or 120 μM SPT alone for 34 hours, or the treatment was followed by treatment with 300 nM TSA for 3 hours prior to RNA isolation and RT-PCR analysis. […] MDA-MB-231 cells were infected with low titers of virus for shRNA specific for SIRT1. Aza (100 nM) was added 24 hours prior to RNA isolation, and RT-PCR analysis was performed for the genes SFRP 1, SFRP2, and GAPDH as described in FIG. 2(A). […] As shown in the left panel, MDA-MB-231 cells were infected with a control (vec) or mutant SIRT1 virus (HY), and RT-PCR was performed as described in FIG. 2(A). MDA-MB-231 cells were infected with low titers of pBabe or pBabe-SIRT1H363Y retrovirus and subsequently treated with 100 nM Aza for 24 hours or with 300 nM TSA for 3 hours prior to harvest, and RT-PCR was performed.
as §2, §3

Data set [7] has as its system SFRP1 and SFRP2 genes in MCF7 cells. Description: RT-PCR re-expression of silenced tumor suppressor genes in MCF7 cells. The format is cell-based, human. The method, then:
as §2, §3

Regarding `NC(=O)C1CCCCc2c1[nH]c1ccc(Cl)cc21` (stereo not shown) [Compound 6, 2-Chloro-5,6,7,8,9,10-hexahydro-cyclohepta[b]indole-6-carboxylic acid amide], the “transcriptional re-activation of SFRP1 and 2 genes” value in data set [1] is listed as “the same effects have been achieved”. Moreover, in data set [2] (RT-PCR), the “SFRP1 expression compared with 1 μM deoxy-aza-cytidine (Aza)” value is “not as strong” and the “SFRP1 expression compared with 300 μM splitomycin or 20 mM nicotinamide, alone or in combination” value was “stronger”. The “SFRP1 RT-PCR specific band” value in data set [2] is on record as “produce the band at both time points”. For the same molecule, the “inhibition of SIRT1 deactylase activity” value on SIRT1 [3] is on record as “potent inhibition”.

For `NC(=O)[C@@H]1CCCc2c1[nH]c1ccc(Cl)cc21` [(R)-6-chloro-2,3,4,9-tetrahydro-1H-carbazole-1-carboxamide], in data set [2], the “SFRP1 RT-PCR specific band” value is listed as “produces no specific band”. In addition, the “inhibition of SIRT1 deactylase activity” value against SIRT1 [3] is “inactive”.

With “RNAi-2: shRNA targeting SIRT1 mRNA, sequence GGCCACGGATAGGTCCATA, NM_012238 position 589”, the “SFRP1 promoter methylation profile (bisulfite sequencing)” value in data set [4] is recorded as “without changes in the methylation profile”. Also, in the data set with SIRT1 [5], the “reduction of SIRT1 protein (knockdown)” value was “very effective in reducing protein levels”. Also, the “gene re-expression of SFRP1, SFRP2 and E-cadherin” value in data set [6] (shRNA retroviral infection, RT-PCR) is on record as “led to gene re-expression”.

As for `NC(=O)c1cccnc1` [NIA, nicotinamide, reference compound], in data set [7] (sirtuin inhibitors, data not shown), the “re-expression of epigenetically silenced, hypermethylated TSGs” value was “could cause the re-expression”. The “re-expression of epigenetically silenced, hypermethylated TSGs incl. CRBP1” value in data set [6] (15 mM NIA or 300 μM SPT for 21 hours) is given as “could cause the re-expression”.

B1: SIRT1H363Y: catalytically inactive, dominant negative inhibitor of SIRT1, expressed through retroviral infection (protein, UniProt Q96EB6 2-747, looked up, variant H363Y)
NAD-dependent protein …: ADEAALALQPGGSPSAAGADREAASSPAGEPLRKRPRRDGPGLERSPGEPGGAAPEREVPAAARGCPGAAAAALWREAEAEAAAAGGEQEAQATAAAGEGDNGPGLQGPSREPPLADNLYDEDDDDEGEEEEEAAAAAIGYRDNLLFGDEIITNGFHSCESDEEDRASHASSSDWTPRPRIGPYTFVQQHLMIGTDPRTILKDLLPETIPPPELDDMTLWQIVINILSEPPKRKKRKDINTIEDAVKLLQECKKIIVLTGAGVSVSCGIPDFRSRDGIYARLAVDFPDLPDPQAMFDIEYFRKDPRPFFKFAKEIYPGQFQPSLCHKFIALSDKEGKLLRNYTQNIDTLEQVAGIQRIIQCYGSFATASCLICKYKVDCEAVRGDIFNQVVPRCPRCPADEPLAIMKPEIVFFGENLPEQFHRAMKYDKDEVDLLIVIGSSLKVRPVALIPSSIPHEVPQILINREPLPHLHFDVELLGDCDVIINELCHRLGGEYAKLCCNPVKLSEITEKPPRTQKELAYLSELPPTPLHVSEDSSSPERTSPPDSSVIVTLLDQAAKSNDDLDVSESKGCMEEKPQEVQTSRNVESIAEQMENPDLKNVGSSTGEKNERTSVAGTVRKCWPNRVAKEQISRRLDGNQYLFLPPNRYIFHGAEVYSDSEDDVLSSSSCGSNSDSGTCQSPSLEEPMEDESEIEEFYNGLEDEPDVPERAGGAGFGTDGDDQEAINEAISVKQEVTDMNYPSNKS
Turning to B1, the “gene re-expression of SFRP1 and SFRP2” value in data set [7] (retroviral infection, RT-PCR) was “re-expression of SFRP1 and SFRP2”. Also, the “re-expression of SFRP1 and SFRP2” value in data set [6] (dominant negative expressed through retroviral infection) is “re-expression of SFRP1 and SFRP2”. For the same molecule, the “reactivation of SFRP1 (GATA-5 and SFRP2 data not shown), combined with Aza” value in data set [6] (low titers of retrovirus, 100 nM Aza for 24 hours) is “synergistic reactivation of SFRP1”. Moreover, the “reactivation of SFRP1 (GATA-5 and SFRP2 data not shown), combined with TSA” value in data set [6] (low titers of retrovirus, 300 nM TSA for 3 hours) is “synergistic reactivation of SFRP1”.
